Values of other authors in paper PMC3426641 (Biochemistry, 2012).
Where two headings read alike, the source gives them in different places.

Columns and labels:
[1] = target: T1, Eis_Mtb (Mycobacterium tuberculosis, UniProt P9WFK7); details: cited from earlier work
[2] = target: T1, Eis_Mtb; details: TLC and NMR spectroscopy; cited from earlier work
[3] = number of acetylations per AG, previously reported

T1 sequence (P9WFK7 whole entry): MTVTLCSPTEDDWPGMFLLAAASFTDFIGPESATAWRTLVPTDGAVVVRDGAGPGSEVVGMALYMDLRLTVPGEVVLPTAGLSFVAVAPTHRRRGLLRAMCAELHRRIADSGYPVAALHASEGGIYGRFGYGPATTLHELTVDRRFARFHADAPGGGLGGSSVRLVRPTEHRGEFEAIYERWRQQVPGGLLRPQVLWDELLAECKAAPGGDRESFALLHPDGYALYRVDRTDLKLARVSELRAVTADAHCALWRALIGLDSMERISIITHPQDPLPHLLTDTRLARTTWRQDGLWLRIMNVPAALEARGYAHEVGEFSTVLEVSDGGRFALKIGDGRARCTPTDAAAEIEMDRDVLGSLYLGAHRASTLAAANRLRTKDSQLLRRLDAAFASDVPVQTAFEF

Row | Molecule | level of acetylation by Eis from M. tuberculosis [1, 3] | positions acetylated (regio-specificity) [2] | level of acetylation by Eis from M. tuberculosis [1]
1 | NCC[C@H](O)C(=O)N[C@@H]1C[C@H](N)[C@@H](O[C@H]2O[C@H](CN)[C@@H](O)[C@H](O)[C@H]2O)[C@H](O)[C@H]1O[C@H]1O[C@H](CO)[C@@H](O)[C@H](N)[C@H]1O [AMK, amikacin] | tri-acetylated |  | 
2 | CN[C@@H]1[C@@H](O[C@H]2O[C@H](CO)[C@@H](N)[C@H](O)[C@H]2O)OC2C[C@@H](N)[C@@H](O[C@H]3[C@H](O)[C@@H](O)[C@H](N)C[C@@H]3N)OC2[C@@H]1O (some centres unmarked) [APR, apramycin] | could not chemically modify |  | 
3 | CN[C@@H]1C[C@H](N)[C@@H](O)[C@H](O[C@H]2O[C@H](CO)[C@H](O)[C@@H]3O[C@@]4(O[C@@H]23)O[C@H]([C@H](N)CO)[C@H](O)[C@H](O)[C@H]4O)[C@H]1O [HYG, hygromycin] | di-acetylated |  | 
4 | NC[C@H]1O[C@H](O[C@H]2[C@H](O)[C@@H](O)[C@H](N)C[C@@H]2N)[C@H](N)[C@@H](O)[C@@H]1O [NEA, neamine] | tri-acetylated | first at the 2′-, then at the 6′-, and finally at the 1-position | 
5 | NC[C@@H]1O[C@H](O[C@H]2[C@@H](O)[C@H](O[C@@H]3[C@@H](O)[C@H](N)C[C@H](N)[C@H]3O[C@H]3O[C@H](CN)[C@@H](O)[C@H](O)[C@H]3N)O[C@@H]2CO)[C@H](N)[C@@H](O)[C@@H]1O [NEO, neomycin B] | tri-acetylated |  | 
6 | CCN[C@@H]1C[C@H](N)[C@@H](O[C@H]2OC(CN)=CC[C@H]2N)[C@H](O)[C@H]1O[C@H]1OC[C@](C)(O)[C@H](NC)[C@H]1O [NET, netilmicin] | di-acetylated |  | 
7 | NC[C@@H]1O[C@H](O[C@H]2[C@@H](O)[C@H](O[C@@H]3[C@@H](O)[C@H](N)C[C@H](N)[C@H]3O[C@H]3O[C@H](CO)[C@@H](O)[C@H](O)[C@H]3N)O[C@@H]2CO)[C@H](N)[C@@H](O)[C@@H]1O [PAR, paromomycin] | di-acetylated |  | 
8 | NC[C@H]1O[C@H](O[C@H]2[C@H](O[C@@H]3O[C@H](CO)[C@@H](O)[C@H]3O)[C@@H](O)[C@H](N)C[C@@H]2N)[C@H](N)[C@@H](O)[C@@H]1O [RIB, ribostamycin] | tri-acetylated |  | 
9 | CN[C@@H]1[C@@H](O)[C@@H](O[C@@H]2[C@@H](O)[C@H](O[C@H]3OC(CN)=CC[C@H]3N)[C@@H](N)C[C@H]2N)OC[C@]1(C)O [SIS, sisomicin] | tri-acetylated |  | 
10 | CN[C@@H]1[C@H](O)[C@H](NC)[C@H]2O[C@@]3(O)C(=O)C[C@@H](C)O[C@H]3O[C@@H]2[C@H]1O [SPT, spectinomycin] | not modified |  | 
11 | [H]/N=C(/N)N[C@H]1[C@H](O)[C@@H](O)[C@H](O[C@@H]2O[C@@H](C)[C@](O)(C=O)[C@H]2O[C@@H]2O[C@@H](CO)[C@H](O)[C@@H](O)[C@@H]2NC)[C@@H](N/C(N)=N\[H])[C@@H]1O [STR, streptomycin] | not modified |  | 
12 | NC[C@H]1O[C@H](O[C@H]2[C@H](O)[C@@H](O[C@H]3O[C@H](CO)[C@@H](O)[C@H](N)[C@H]3O)[C@H](N)C[C@@H]2N)[C@H](N)C[C@@H]1O [TOB, tobramycin] | tetra-acetylated |  | 
13 | kanamycin A |  |  | di-acetylated
